Laboratory results published in patent US7537919B2, “Cytochrome P450RAI-2 and related proteins” (Cytochroma Inc., priority 1999, dated 2009).
“And” between values parts separate entries of the source, which are not always exact repeats. Equal values may be shown once. One block for each molecule: values may come before it.

Tests used:
P450RAI-1 [1] = target: T1, P450RAI-1 (Homo sapiens, UniProt O43174); assay: Competitive inhibition of all-trans-RA metabolism in COS-1 cells transfected with pcDNA3.1-P450RAI-1; type: cell-based; design: expressed in transfected cells; host or cells: COS-1 (African green monkey kidney), transient transfection; conditions: for effectiveness as competitor of P450RAI-1 mediated all-trans-RA metabolism: compared with all-trans-RA; for IC50: 2 nM [3H]all-trans-RA, 3 hours, aqueous soluble radioactivity, read-out: Interpolated ID50, P450RAI-1
T1 sequence (O43174 1-497): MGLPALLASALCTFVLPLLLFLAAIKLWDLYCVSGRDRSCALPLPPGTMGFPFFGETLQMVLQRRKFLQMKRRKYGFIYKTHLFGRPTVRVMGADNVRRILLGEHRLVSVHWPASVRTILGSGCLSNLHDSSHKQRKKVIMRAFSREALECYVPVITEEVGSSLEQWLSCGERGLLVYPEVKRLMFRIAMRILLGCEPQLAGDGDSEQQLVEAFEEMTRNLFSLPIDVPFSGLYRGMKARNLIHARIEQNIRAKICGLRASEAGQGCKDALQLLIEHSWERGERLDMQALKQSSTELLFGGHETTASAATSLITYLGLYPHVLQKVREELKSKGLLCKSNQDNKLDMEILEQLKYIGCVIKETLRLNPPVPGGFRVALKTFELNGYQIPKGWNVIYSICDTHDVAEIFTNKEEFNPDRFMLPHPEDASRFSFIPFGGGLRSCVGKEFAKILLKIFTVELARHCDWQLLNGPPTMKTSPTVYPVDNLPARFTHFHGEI
Description: (§1) Panels on the right show cells expressing P450RAI-2 with panels on the left showing cells expressing P450RAI-1.
(§2) Exponentially growing cells were plated in triplicate into 6-well plates and transfected with lug of pcDNA3.1-P450RAI-1 or pcDNA3.1-P450RAI-2 using Fugene 6 transfection reagent with 3 ul per sample as described by the manufacturer (Roche Molecular Biochemicals, IN). Cells were maintained in media supplemented with 10% FBS during transfection.
COS-1 cells were transfected with either pcDNA3.1-P450RAI-1 or pcDNA3.1-P450RAI-2 in 6-well tissue culture plates as described above. 48 hours post-transfection cells were harvested, pooled, washed with DMEM medium and replated into duplicate 48-well plates with 5×10^5 cells per well.

P450RAI-2 [2] = target: T2, P450RAI-2 (Homo sapiens, UniProt Q9NR63); assay: Competitive inhibition of all-trans-RA metabolism in COS-1 cells transfected with pcDNA3.1-P450RAI-2; type: cell-based; design: The full-length human P450RAI-2 cDNA was cloned into the eukaryotic expression vector pcDNA 3.1; expressed in transfected cells; host or cells: COS-1 (African green monkey kidney), transient transfection; conditions: for effectiveness as competitor of P450RAI-2 mediated all-trans-RA metabolism: compared with all-trans-RA, COS-1 cells
T2 sequence (Q9NR63 1-512): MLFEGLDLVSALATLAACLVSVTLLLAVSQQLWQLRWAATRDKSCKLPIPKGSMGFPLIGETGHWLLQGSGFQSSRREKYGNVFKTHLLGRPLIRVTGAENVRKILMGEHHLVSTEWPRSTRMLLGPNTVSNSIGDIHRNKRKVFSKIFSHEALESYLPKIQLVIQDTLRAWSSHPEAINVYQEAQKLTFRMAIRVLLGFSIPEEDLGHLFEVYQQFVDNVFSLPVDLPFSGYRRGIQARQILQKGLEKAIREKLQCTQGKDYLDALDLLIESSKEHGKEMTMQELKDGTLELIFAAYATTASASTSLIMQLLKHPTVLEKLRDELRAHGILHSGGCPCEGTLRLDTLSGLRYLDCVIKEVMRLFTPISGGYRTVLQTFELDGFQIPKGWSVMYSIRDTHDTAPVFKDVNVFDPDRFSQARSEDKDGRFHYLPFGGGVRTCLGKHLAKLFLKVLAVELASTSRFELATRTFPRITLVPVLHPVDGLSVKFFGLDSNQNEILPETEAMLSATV
Description: as §1, §2
COS-1 cells were transfected with either pcDNA3.1-P450RAI-1 or pcDNA3.1-P450RAI-2 in 6-well tissue culture plates as described above.

P450RAI-2 transcripts = assay: Induction of P450RAI-2 mRNA in cultured cell lines (Northern blot, RT-PCR); conditions: for induction of P450RAI-2 expression, MCF-7 cells: 10^-6 M retinoid
[3] = Conversion of [3H]all-trans-RA in controls (media alone, pcDNA3.1 transfected COS-1 cells)
P450RAI-2 [4] = target: T2, P450RAI-2; assay: Metabolism of [3H]all-trans-RA to aqueous-soluble products in COS-1 cells transfected with pcDNA3.1-P450RAI-2; design: dose or concentration left out as unconfirmed; conditions: radiolabelled all-trans-retinoic acid
P450RAI-1 [5] = target: T1, P450RAI-1; assay: Metabolism of [3H]all-trans-RA to aqueous-soluble products in COS-1 cells transfected with pcDNA3.1-P450RAI-1; conditions: 100 mM (so in the source) radiolabelled all-trans-retinoic acid
P450RAI-2 expression = P450RAI-2 expression in RAFT and psoriasis biopsy samples (Northern blot, RT-PCR); type: cell-based, human
Description: Total RNA aliquots (10 μg) were electrophoresed on a 1.0% formaldehyde-agarose gel and a northern blot performed. The gel was photographed under ultraviolet light and then blotted on Hybond ECL nitrocellulose membrane (Amersham Pharmacia Biotech, UK) and fixed to the membrane by baking at 80° C. for 2 hours under vacuum. […] Three individual cDNA fragments were labeled with α-[^32P]dATP using the Prime-A-Gene Labeling System (Promega, WI). The probes were as follows; P450RAI-1762-1217 bp of SEQ ID NO:13, full length P450RAI-2 SEQ ID NO:4 and a human glyceraldehyde-3-phosphate dehydrogenase (GAPDH) PCR fragment. The blot was hybidized with P450RAI-2, washed two times for 5 minutes in 2×SSPE, 0.1% SDS at room temperature, then washed once at 65° C. for 10 minutes in 1×SSPE, 0.1% SDS and a final wash for 15 minutes at 65° C. in 0.1×SSPE, 0.1% SDS. The blot was exposed at −70° C. for 48 hours to Kodak X-Omat AR film (Eastman Kodak Company, NY). […] The blot was stripped by washing two times for 30 minutes in boiling 0.5% SDS and exposed to film overnight to ensure proper removal of probe. The above protocol was repeated for P450RAI-1 and GAPDH. The P450RAI-1 and GAPDH blots were exposed for 96 and 4 hours respectively.
The final primer concentrations were 45 μM for the P450RAI-1 and P450RAI-2 primers and 11.25 μM for the GAPDH-specific primers. Two separate sets of reactions were performed using the primer sets, P450RAI-1/GAPDH and P450RAI-2/GAPDH. […] The P450RAI-1, P450RAI-2 and GAPDH upstream and downstream amplification primers sets were 5′[…]-3′ (SEQ ID NO: 35) and 5′-[…]-3′ (SEQ ID NO: 36), 5′-[…]-3′ (SEQ ID NO: 37) and 5′-[…]-3′ (SEQ ID NO: 38), 5′-[…]-3′ (SEQ ID NO: 39) and 5′-[…]-3′ (SEQ ID NO: 40) respectively. […] Both the Psoriasis samples show PCR products corresponding to P450RAI-2.

IC50 (P450RAI-1 [1]): > 100 µM
effectiveness as competitor of P450RAI-1 mediated all-trans-RA metabolism (P450RAI-1 [1]): less effective
effectiveness as competitor of P450RAI-1 mediated all-trans-RA metabolism (P450RAI-1 [1]; listed as retinol): very poor competitors
effectiveness as competitor of P450RAI-2 mediated all-trans-RA metabolism (P450RAI-2 [2]): less effective
effectiveness as competitor of P450RAI-2 mediated all-trans-RA metabolism (P450RAI-2 [2]; listed as retinol): very poor competitors
IC50 (P450RAI-2 [2]; read-out: Interpolated ID50, P450RAI-2): > 100 µM
Compound: CC1=C(/C=C/C(C)=C/C=C/C(C)=C/CO)C(C)(C)CCC1 [Retinol, retinol]

effectiveness as competitor of P450RAI-1 mediated all-trans-RA metabolism (P450RAI-1 [1]): less effective
effectiveness as competitor of P450RAI-1 mediated all-trans-RA metabolism (P450RAI-1 [1]; listed as retinaldehyde): very poor competitors
effectiveness as competitor of P450RAI-2 mediated all-trans-RA metabolism (P450RAI-2 [2]): less effective
effectiveness as competitor of P450RAI-2 mediated all-trans-RA metabolism (P450RAI-2 [2]; listed as retinaldehyde): very poor competitors
Compound: CC1=C(/C=C/C(C)=C/C=C/C(C)=C/C=O)C(C)(C)CCC1 [retinal]

Second part, the molecule before the results:

Compound: CC1=C(/C=C/C(C)=C\C=C\C(C)=C\C(=O)O)C(C)(C)CCC1 [9-cis-RA, 9-cis retinoic acid]
effectiveness as competitor of P450RAI-1 mediated all-trans-RA metabolism (P450RAI-1 [1]): less effective
effectiveness as competitor of P450RAI-2 mediated all-trans-RA metabolism (P450RAI-2 [2]): less effective
induction of P450RAI-2 expression, MCF-7 cells (P450RAI-2 transcripts; Northern blot, 12 hours): not clear

Compound: CC1=C(/C=C/C(C)=C/C=C/C(C)=C\C(=O)O)C(C)(C)CCC1 [13-cis-RA, 13-cis retinoic acid]
effectiveness as competitor of P450RAI-1 mediated all-trans-RA metabolism (P450RAI-1 [1]): less effective
effectiveness as competitor of P450RAI-2 mediated all-trans-RA metabolism (P450RAI-2 [2]): less effective
induction of P450RAI-2 expression, MCF-7 cells (P450RAI-2 transcripts; Northern blot, 12 hours): induced

Compound: CC1=C(/C=C/C(C)=C/C=C/C(C)=C/C(=O)O)C(C)(C)CCC1 [All-trans-RA, all-trans retinoic acid]
conversion of substrate to aqueous radioactivity, pcDNA3.1 transfected cells ([3]; COS-1 cells with empty vector pcDNA3.1, 3 hours): 2.7±0.2%
conversion of substrate to aqueous radioactivity, media alone ([3]; media alone control, 3 hours): 1.6±0.1%
all-trans-RA substrate converted to aqueous-soluble products, P450RAI-2 transfected cells (P450RAI-2 [4]): 34±0.2%
IC50 (P450RAI-1 [1]): ~2.5 µM and 2.5 µM
time to induction of P450RAI-2 transcripts (P450RAI-2 transcripts; HPK1a-ras cells, RT-PCR, post-addition of inducer): ≤ 2 h
induction of P450RAI-2 transcripts, HPK1a-ras, HeLa and MCF-7 (P450RAI-2 transcripts; Northern blot, 1 μM, 12 hours): show induction
induction of P450RAI-2 expression, MCF-7 cells (P450RAI-2 transcripts; Northern blot, 12 hours): induced
induction of P450RAI-2 expression, HPK1A-RAS keratinocytes (P450RAI-2 transcripts; Northern blot, 10^-6 M, 12 hours): inducible
inducible expression of P450RAI-2, MCF-7, HeLa, HPK1a-ras and WT-E (P450RAI-2 transcripts; RT-PCR, 1 μM): evidence for inducible expression
P450RAI-2 transcripts in NB4, V79 and SK-Luci-6 cells (P450RAI-2 transcripts; RT-PCR, vehicle or all-trans-RA treated): little or no perceptible transcripts
all-trans-RA substrate converted to aqueous-soluble products, P450RAI-1 transfected cells (P450RAI-1 [5]): 26±1.5%

Compound: CCOC(=O)c1ccc(C#Cc2ccc3c(c2)C(C)(C)CCS3)nc1 [Tazarotene]
P450RAI-2 expression, Day14 Psoriasis Biopsy sample (P450RAI-2 expression; Northern blot): expressed
P450RAI-2 expression, RAFT sample (P450RAI-2 expression; Northern blot): induced
P450RAI-2 expression, RAFT sample (P450RAI-2 expression; RT-PCR): shows expression
